From patent US10821115B2, “Compounds that inhibit Mcl-1 protein” (priority 2017, dated 2020)
Where two headings read alike, the source gives them in different places.

Experiments:
[1] = target: recombinant human Mcl-1 (residues 171-327) / Bim interaction (Homo sapiens (Human), UniProt Q07820); assay: biochemical; assay type: binding; conditions: read-out: Mcl-1 HTRF IC50
[2] = system: human multiple myeloma cell line, OPM-2; assay: Cell viability assay (OPM-2 10 FBS), CellTiter-Glo; assay type: cell-based
How it was run: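 Serially diluted test compounds are incubated 16 h with cells (3000/well) in RPMI 1640 supplemented with 10% FBS. Viability is then measured by luminescence and IC50 calculated by 4-parameter logistic fit.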

[3] = TR-FRET, Mcl-1(171-327) / biotin-Bim (51-76)
[4] = Homo sapiens, OPM-2, 16 h, read-out: OPM-2 10% FBS IC50 IP, OPM-2 cells, 10% FBS, 16 h, CellTiter-Glo

recombinant human Mcl-1 (residues 171-327) / Bim interaction, sequence (Q07820 171-327): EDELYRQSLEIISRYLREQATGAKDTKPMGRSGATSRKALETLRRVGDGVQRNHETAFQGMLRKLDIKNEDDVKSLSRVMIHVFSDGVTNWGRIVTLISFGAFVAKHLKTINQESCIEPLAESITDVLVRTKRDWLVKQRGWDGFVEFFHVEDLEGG

SMILES	IC50 [1, 3] [nM]	IC50 [2, 4] [nM]	IC50 [1] [nM]	IC50 ([2]; read-out: OPM-2 10% FBS IC50 IP, OPM-2 cells, 10% FBS, 16 h, CellTiter-Glo) [nM]
C[C@@H]1[C@@H](C)CCC[C@](O)(CC[S@@+](C)[O-])[C@@H]2CC[C@H]2CN2C[C@@]3(CCCc4cc(Cl)ccc43)COc3ccc(cc32)C(=O)NS1(=O)=O [Example 100330, (1S,3′R,6′R,7′S,11′S,12′R)-6-chloro-7′-hydroxy-11′,12′-dimethyl-7′-(2-((R)-methylsulfinyl)ethyl)-3,4-dihydro-2H,15′H-spiro[naphthalene-1,22′-[20]oxa[13]thia[1,14]diazatetracyclo [14.7.2.0~3,6~.0~19,24~]pentacosa[16,18,24]trien]-15′-one 13′,13′-dioxide]	0.083	8260	–	–
C[C@@H]1[C@@H](C)C/C=C/[C@](O)(c2cccc(F)n2)[C@@H]2CC[C@H]2CN2C[C@@]3(CCCc4cc(Cl)ccc43)COc3ccc(cc32)C(=O)NS1(=O)=O [Example 100331, (1S,3′R,6′R,7′R,8′E,11′S,12′R)-6-chloro-7′-(6-fluoro-2-pyridinyl)-7′-hydroxy-11′,12′-dimethyl-3,4-dihydro-2H,15′H-spiro[naphthalene-1,22′-[20]oxa[13]thia[1,14]diazatetracyclo [14.7.2.0~3,6~.0~19,24~]pentacosa[8,16,18,24]tetraen]-15′-one 13′,13′-dioxide]	0.192	8260	–	–
CC#C[C@]1(OC)CCC[C@H](C)[C@@H](C)S(=O)(=O)NC(=O)c2ccc3c(c2)N(C[C@@H]2CC[C@H]21)C[C@@]1(CCCc2cc(Cl)ccc21)CO3 [Example 100332, (1S,3′R,6′R,7′S,11′S,12′R)-6-chloro-7′-methoxy-11′,12′-dimethyl-7′-(1-propyn-1-yl)-3,4-dihydro-2H,15′H-spiro[naphthalene-1,22′-[20]oxa[13]thia[1,14]diazatetracyclo [14.7.2.0~3,6~.0~19,24~]pentacosa[16,18,24]trien]-15′-one 13′,13′-dioxide]	6.46	4310	–	–
C[C@@H]1[C@@H](C)C/C=C/[C@@](O)(COS(C)(=O)=O)[C@@H]2CC[C@H]2CN2C[C@@]3(CCCc4cc(Cl)ccc43)COc3ccc(cc32)C(=O)NS1(=O)=O [Example 100335, ((1S,3′R,6′R,7′S,8′E,11′S,12′R)-6-chloro-7′-hydroxy-11′,12′-dimethyl-13′,13′-dioxido-15′-oxo-3,4-dihydro-2H-spiro[naphthalene-1,22′-[20]oxa[13]thia[1,14]diazatetracyclo [14.7.2.0~3,6~.0~19,24~]pentacosa[8,16,18,24]tetraen]-7′-yl)methyl methanesulfonate]	0.319	165	–	–
C[C@@H]1[C@@H](C)CCC[C@@](C=O)(CN2CCOCC2)[C@@H]2CC[C@H]2CN2C[C@@]3(CCCc4cc(Cl)ccc43)COc3ccc(cc32)C(=O)NS1(=O)=O [Example 100336, (1S,3′R,6′R,7′S,11′S,12′R)-6-chloro-11′,12′-dimethyl-7′-(4-morpholinylmethyl)-15′-oxo-3,4-dihydro-2H-spiro[naphthalene-1,22′-[20]oxa[13]thia[1,14]diazatetracyclo [14.7.2.0~3,6~.0~19,24~]pentacosa[16,18,24]triene]-7′-carbaldehyde 13′,13′-dioxide]	–	1810	1.12	–
C[C@@H]1[C@@H](C)CCC[C@](C=O)(CN2CCOCC2)[C@@H]2CC[C@H]2CN2C[C@@]3(CCCc4cc(Cl)ccc43)COc3ccc(cc32)C(=O)NS1(=O)=O [Example 100337, (1S,3′R,6′R,7′R,11′S,12′R)-6-chloro-11′,12′-dimethyl-7′-(4-morpholinylmethyl)-15′-oxo-3,4-dihydro-2H-spiro[naphthalene-1,22′-[20]oxa[13]thia[1,14]diazatetracyclo [14.7.2.0~3,6~.0~19,24~]pentacosa[16,18,24]triene]-7′-carbaldehyde 13′,13′-dioxide]	–	2410	1.61	–
C[C@@H]1[C@@H](C)CCCC(CO)(CO)[C@@H]2CC[C@H]2CN2C[C@@]3(CCCc4cc(Cl)ccc43)COc3ccc(cc32)C(=O)NS1(=O)=O [Example 100342, (1S,3′R,6′R,11′S,12′R)-6-chloro-7′,7′-bis(hydroxymethyl)-11′,12′-dimethyl-3,4-dihydro-2H,15′H-spiro[naphthalene-1,22′-[20]oxa[13]thia[1,14]diazatetracyclo [14.7.2.0~3,6~.0~19,24~]pentacosa[16,18,24]trien]-15′-one 13′,13′-dioxide]	1.69	782	–	–
COCC#C[C@@]1(OC)/C=C/C[C@H](C)[C@@H](C)S(=O)(=O)NC(=O)c2ccc3c(c2)N(C[C@@H]2CC[C@H]21)C[C@@]1(CCCc2cc(Cl)ccc21)CO3 [Example 100343, (1S,3′R,6′R,7′R,8′E,11′S,12′R)-6-chloro-7′-methoxy-7′-(3-methoxy-1-propyn-1-yl)-11′,12′-dimethyl-3,4-dihydro-2H,15′H-spiro[naphthalene-1,22′-[20]oxa[13]thia[1,14]diazatetracyclo [14.7.2.0~3,6~.0~19,24~]pentacosa[8,16,18,24]tetraen]-15′-one 13′,13′-dioxide]	2.51	617	–	–
CO[C@@]1(C#CCO)/C=C/C[C@H](C)[C@@H](C)S(=O)(=O)NC(=O)c2ccc3c(c2)N(C[C@@H]2CC[C@H]21)C[C@@]1(CCCc2cc(Cl)ccc21)CO3 [Example 100344, (1S,3′R,6′R,7′S,8′E,11′S,12′R)-6-chloro-7′-(3-hydroxy-1-propyn-1-yl)-7′-methoxy-11′,12′-dimethyl-3,4-dihydro-2H,15′H-spiro[naphthalene-1,22′-[20]oxa[13]thia[1,14]diazatetracyclo [14.7.2.0~3,6~.0~19,24~]pentacosa[8,16,18,24]tetraen]-15′-one 13′,13′-dioxide]	0.309	290	–	–
CO[C@@]1(C#CCO)/C=C/C[C@H](C)[C@@H](C)S(=O)(=O)NC(=O)c2ccc3c(c2)N(C[C@@H]2CC[C@H]21)C[C@@]1(CCCc2cc(Cl)ccc21)CO3 [Example 100345, (1S,3′R,6′R,7′S,8′E,11′S,12′R)-6-chloro-7′-(3-hydroxy-1-propyn-1-yl)-7′-methoxy-11′,12′-dimethyl-3,4-dihydro-2H,15′H-spiro[naphthalene-1,22′-[20]oxa[13]thia[1,14]diazatetracyclo [14.7.2.0~3,6~.0~19,24~]pentacosa[8,16,18,24]tetraen]-15′-one 13′,13′-dioxide]	2.42	–	–	218
C[C@@H]1[C@@H](C)C/C=C/[C@@](O)(CC2=NC(C)(C)CO2)[C@@H]2CC[C@H]2CN2C[C@@]3(CCCc4cc(Cl)ccc43)COc3ccc(cc32)C(=O)NS1(=O)=O [Example 100346, (1S,3′R,6′R,7′S,8′E,11′S,12′R)-6-chloro-7′-((4,4-dimethyl-4,5-dihydro-1,3-oxazol-2-yl)methyl)-7′-hydroxy-11′,12′-dimethyl-3,4-dihydro-2H,15′H-spiro[naphthalene-1,22′-[20]oxa[13]thia[1,14]diazatetracyclo [14.7.2.0~3,6~.0~19,24~]pentacosa[8,16,18,24]tetraen]-15′-one 13′,13′-dioxide]	0.735	248	–	–
C[C@@H]1[C@@H](C)C/C=C/[C@](O)(c2cccnn2)[C@@H]2CC[C@H]2CN2C[C@@]3(CCCc4cc(Cl)ccc43)COc3ccc(cc32)C(=O)NS1(=O)=O [Example 100349, (1S,3′R,6′R,7′R,8′E,11′S,12′R)-6-chloro-7′-hydroxy-11′,12′-dimethyl-7′-(3-pyridazinyl)-3,4-dihydro-2H,15′H-spiro[naphthalene-1,22′-[20]oxa[13]thia[1,14]diazatetracyclo [14.7.2.0~3,6~.0~19,24~]pentacosa[8,16,18,24]tetraen]-15′-one 13′,13′-dioxide]	1.15	58	–	–
CO[C@]1(CCOS(C)(=O)=O)/C=C/C[C@H](C)[C@@H](C)S(=O)(=O)NC(=O)c2ccc3c(c2)N(C[C@@H]2CC[C@H]21)C[C@@]1(CCCc2cc(Cl)ccc21)CO3 [Example 100351, 2-((1S,3′R,6′R,7′R,8′E,11′S,12′R)-6-chloro-7′-methoxy-11′,12′-dimethyl-13′,13′-dioxido-15′-oxo-3,4-dihydro-2H-spiro[naphthalene-1,22′-[20]oxa[13]thia[1,14]diazatetracyclo [14.7.2.0~3,6~.0~19,24~]pentacosa[8,16,18,24]tetraen]-7′-yl)ethyl methanesulfonate]	0.115	2020	–	–
COc1ncccc1[C@]1(OC)/C=C/C[C@H](C)[C@@H](C)S(=O)(=O)NC(=O)c2ccc3c(c2)N(C[C@@H]2CC[C@H]21)C[C@@]1(CCCc2cc(Cl)ccc21)CO3 [Example 100352, (1S,3′R,6′R,7′S,8′E,11′S,12′R)-6-chloro-7′-methoxy-7′-(2-methoxy-3-pyridinyl)-11′,12′-dimethyl-3,4-dihydro-2H,15′H-spiro[naphthalene-1,22′-[20]oxa[13]thia[1,14]diazatetracyclo [14.7.2.0~3,6~.0~19,24~]pentacosa[8,16,18,24]tetraen]-15′-one 13′,13′-dioxide]	2.75	246	–	–
C[C@@H]1[C@@H](C)CCC[C@@](O)(C#CCN2CCOCC2)[C@@H]2CC[C@H]2CN2C[C@@]3(CCCc4cc(Cl)ccc43)COc3ccc(cc32)C(=O)NS1(=O)=O [Example 100354, (1S,3′R,6′R,7′S,11′S,12′R)-6-chloro-7′-hydroxy-11′,12′-dimethyl-7′-(3-(4-morpholinyl)-1-propyn-1-yl)-3,4-dihydro-2H,15′H-spiro[naphthalene-1,22′-[20]oxa[13]thia[1,14]diazatetracyclo [14.7.2.0~3,6~.0~19,24~]pentacosa[16,18,24]trien]-15′-one 13′,13′-dioxide]	0.109	147	–	–
